Measured values from patent US11975003B2, “Methods and compositions for treatment of Zika virus infection” (priority 2016, dated 2024).
In brackets after ≈: the same amount, converted by molar mass. Where two headings read alike, the source gives them in different places.

Legend:
[1] = tested on: Zika virus Malaysia P 6-740; experiment: CPE reduction assay (neutral red uptake); assay type: cell-based; settings: Zika virus
Description: (§1) The compounds were administered at a range of concentrations up to 100 μg/ml. Compounds were prepared in MEM just prior to testing. Inhibition of virus replication was determined by microscopic examination of the infected cells for cytopathic effect, increase of neutral red (NR) dye uptake (colorimetric determination), and virus yield reduction. Uninfected cells treated with a compound were assayed as above for cytotoxicity control. The EC50, EC90 and SI (selectivity index) values were determined in Vero76, Huh7 and RD cells as analyzed by the neutral red uptake dye assay and virus yield reduction assays. The results are presented from 3 or more independent experiments (standard deviations not shown. Three Zika virus strains were used in this in vitro study, Malaysia strain P 6-740, Uganda strain MR-766 and Puerto Rico strain PRVABC-59. Cells were maintained under standard conditions.

[2] = tested on: Zika virus Puerto Rico PRVABC59; experiment: CPE reduction assay (neutral red uptake); assay type: cell-based; settings: Zika virus
Description: as §1

[3] = tested on: Zika virus Uganda MR 766; experiment: CPE reduction assay (neutral red uptake); assay type: cell-based; settings: Zika virus
Description: as §1

[4] = tested on: Zika virus Malaysia P 6-740; experiment: Virus yield reduction (VYR) assay; assay type: cell-based; settings: Zika virus
Description: as §1

[5] = tested on: Zika virus Puerto Rico PRVABC59; experiment: Virus yield reduction (VYR) assay; assay type: cell-based; settings: Zika virus
Description: as §1

[6] = tested on: Zika virus Uganda MR 766; experiment: Virus yield reduction (VYR) assay; assay type: cell-based; settings: Zika virus
Description: as §1

[7] = tested on: Zika virus (Malaysia, strain P 6-740); experiment: Murine Zika virus model, treatment begun 4 h before infection (Example 3); settings: for percentage weight change vs placebo: FIG. 6; for relative virus levels vs placebo: FIG. 7; for survival vs placebo: none surviving past day 20
Description: The agents used in this experiment were compound A (the compound of formula I, where A is NH2 and B is H as the HCL salt) and ribavirin. Compound A was administered IM at 150 mg/kg/day and 300 mg/kg/day, each in a volume of 0.05 ml saline and ribavirin was administered IP at 75 mg/kg/day and 50 mg/kg/day, each in a volume of 0.1 ml saline. IM or IP administration of the daily dose was accomplished in two IM/IP injections of one-half the daily dose each. Mice were administered the first dose of Compound A and ribavirin 4 hours prior to infection with Zika virus and continued the treatment for 8 days post-infection.
In this experiment, Zika virus (Malaysia, strain P 6-740) was administered at a challenge dose of 100 CCID50 (10^3 pfu) per mouse via subcutaneous injection in a 0.1 ml volume.
Mice were monitored for survival 28 days post-virus challenge. Weight change for individual mice were taken on day 0 and every other day through the end of the experiments. Mice were observed daily for signs of disease including conjunctivitis, hunching, and limb weakness or paralysis.
For Zika virus infection and antiviral treatment studies, mice were randomly assigned to groups of 10 animals each. A 10^-3 dilution (10^4.0 pfu/mL) of the virus was prepared in MEM. Mice were challenged s.c. with 0.1 mL of the diluted virus (˜10^3.0 pfu/animal). All compound dosages were based on an average mouse weight of 22 g. Compounds were prepared in sterile saline less than 18 hours prior to initial administration in mice and stored at 4° C. for the duration of the study. Compound A was administered i.m., twice daily (bid) at 300 or 150 mg/kg/d. Ribavirin was given i.p., bid at 75 or 50 mg/kg/d. Treatments began 4 hours prior to virus challenge and continued for 8 days. The identity of the treatment groups was blinded to the technician administering treatments. Mortality was observed twice daily for 28 days, and the weight of each mouse was recorded on day 0 and then every other day from 1-19 days post-virus infection (dpi). Mice were humanely euthanized if they could no longer right themselves or were unresponsive to stimuli.
Fifty to 100 mg of freshly isolated tissue was ground with a pestle in 1 mL TRI Reagent (Sigma-Aldrich, St. Louis, MO) and total RNA was extracted. For the extraction of viral RNA from liquid samples, QlAamp Viral RNA Mini Spin kit was used according to the manufactures instructions (Qiagen, Valencia, CA). Extracted RNA was eluted with nuclease-free water and was amplified by a quantitative real-time RT-PCR using the Logix Smart Zika Test developed by Co-Diagnostics, Inc. (Bountiful, UT). Five μL of the master mix containing a set of primers and Rapid Probe, labeled with a FAM fluorophore and DABCYL quencher, was mixed with 2-5 μL of RNA and an appropriate volume of water for a final reaction volume of 10 μl. RNA was first reverse transcribed for 10 minutes at 55° C., followed by strand separation by heating to 95° C. for 20 seconds. The PCR reaction consisted of 40 cycles at 95° C. for 1 second and 55° C. for 20 seconds. A standard curve was generated with a synthetic RNA spanning the region of amplification and it was used to calculate the number of genome equivalents of the unknown samples.

[8] = tested on: Zika virus; experiment: Virus yield reduction curves (FIGS. 1E-1G), strain not stated; assay type: cell-based
Description: as §1

[9] = Phase 1 study of intramuscular injection in healthy human subjects (Example 8); assay type: in vivo; settings: Compound A 4 mg/kg IM with lidocaine
Description: A phase 1 double-blind, placebo-controlled, dose-ranging study was conducted to evaluate the safety, tolerability, and pharmacokinetics of Compound A administered by intramuscular injection (IM) in healthy human subjects. The study was conducted in two parts. In part 1, subjects received a single dose of Compound A at doses from 0.3 mg/kg to 10 mg/kg via IM administration. Additionally, the effect of lidocaine administration (co-administered with Compound A at a dose of 4 mg/kg) on alleviation of pain associated with injection was also evaluated. In part 2, subjects received Compound A for 7 days (q.d.) at doses of 2.5 mg/kg/day, 5 mg/kg/day or 10 mg/kg/day via IM administration. 50 subjects received single doses of Compound A in part 1 (12 subjects received placebo) and 23 subjects received multiple doses of Compound A in part 2 (6 subjects received placebo). All planned cohorts were completed.
Eligible subjects were adults of either sex ages 18 to 50. […]
The plasma concentration time profile of Compound A was determined for each subject in part 2 (results expressed as ng/ml Compound A). Blood samples were taken on Day 1 prior to administration of the first dose and at 1, 2, 3, 4, 6, 8, 10, 12, 16 and 24 hours after administration of the first dose of Compound A and on Day 7 prior to administration of the last dose of Compound A and at 1, 2, 3, 4, 6, 8, 10, 12, 16, 24, 36, 48, 72 and 96 hours after administration of the last dose of Compound A. Plasma samples were obtained from the blood samples and the concentration of Compound A determined.

With `NC(=O)c1ncn([C@@H]2O[C@H](CO)[C@@H](O)[C@H]2O)n1` [Ribavirin, reference compound] the EC50 ([1]; Huh-7 cells) was 7.2 ± 2.8 µg/mL (≈ 29.5 µM), the EC50 ([1]; Vero 76, Vero76 cells) was 143 ± 85 µg/mL (≈ 586 µM) and the EC50 ([2]; Vero 76, read-out: CPE red. assay EC50) was 23 ± 16.8 µg/mL (≈ 94.2 µM). For the same compound, the EC50 ([2]; Puerto Rico PRVABC59, Huh-7 cells, read-out: CPE red. assay EC50) was 3.8 ± 1.6 µg/mL (≈ 15.6 µM), the EC50 ([2]; Puerto Rico PRVABC59, RD cells, read-out: CPE red. assay EC50) was 10 ± 6 µg/mL (≈ 40.9 µM) and the EC50 ([3]; Huh-7 cells) was 8.9 ± 7.9 µg/mL (≈ 36.4 µM). For the same compound, the EC50 ([3]; RD cells) was 9.3 ± 5.2 µg/mL (≈ 38.1 µM), the EC50 ([3]; Vero 76, Vero76 cells) was 85 ± 77.9 µg/mL (≈ 348 µM) and the EC90 ([4]; Huh-7 cells) was 13.1 ± 0.5 µg/mL (≈ 53.6 µM). The EC90 ([4]; Vero 76, Vero76 cells) was 195 ± 63.6 µg/mL (≈ 799 µM), the EC90 ([5]; Vero 76, read-out: VYR assay EC90) was no less than 281 µg/mL and the EC90 ([5]; Puerto Rico PRVABC59, Huh-7 cells, read-out: VYR assay EC90) was 10.4 ± 0.8 µg/mL (≈ 42.6 µM). It also gave an EC90 ([5]; Puerto Rico PRVABC59, RD cells, read-out: VYR assay EC90) of 46.3 ± 8.6 µg/mL (≈ 190 µM), an EC90 ([6]; Huh-7 cells) of 9.52 ± 2.1 µg/mL (≈ 39 µM) and an EC90 ([6]; RD cells) of 13.2 ± 1.7 µg/mL (≈ 54.1 µM). The EC90 ([6]; Vero 76, Vero76 cells) was 198 ± 172 µg/mL (≈ 811 µM), the “percentage weight change vs placebo” value ([7]; 50 mg/kg/day IP (group 7)) was “no significant improvement” and the “relative virus levels vs placebo” value ([7]; 50 mg/kg/day IP (group 7)) was “failed to decrease relative virus levels”. For the same compound, the survival vs placebo ([7]; 50 mg/kg/day IP bid x 8 days, begun -4 h (group 7)) was “did not increase the survival”, the “percentage weight change vs placebo” value ([7]; 75 mg/kg/day IP (group 5)) was “no significant improvement” and the “relative virus levels vs placebo” value ([7]; 75 mg/kg/day IP (group 5)) was “failed to decrease relative virus levels”. For the same compound, the survival vs placebo ([7]; 75 mg/kg/day IP bid x 8 days, begun -4 h (group 5)) was “did not increase the survival”, the “weight change in sham-infected mice at day 19” value ([7]; 75 mg/kg/day IP, sham infection) was “no significant weight change” and the “antiviral activity in virus yield reduction” value ([8]; Huh-7 cells, FIG. 1F) was “confirmed the antiviral activity”. For the same compound, the “antiviral activity in virus yield reduction” value ([8]; RD cells, FIG. 1G) was “confirmed the antiviral activity” and the “activity in VYR studies” value ([8]; Vero76 cells, FIG. 1E) was “not active”.
For `CCN(CC)CC(=O)Nc1c(C)cccc1C` [lidocaine, reference compound], the “injection site pain on co-administration with Compound A” value [9] was “ameliorate injection site pain”.
